21 compounds from ChEMBL document CHEMBL1144680, “Structure-guided design of aminopyrimidine amides as potent, selective inhibitors of lymphocyte specific kinase: synthesis, structure-activity relationships, and inhibition of in vivo T cell activation” (J Med Chem, 2008) can be followed below.

One series relates to Blood. Briefly: Inhibition of anti-CD3-induced IL2 production in human whole blood by ELISA. Format: functional, tissue-based. For orientation: In an ELISA, binding on a coated surface is turned into a signal by an enzyme label.
A short description of series [1]: Protein binding in mouse plasma. Type of series: ADME, cell-free. The conditions noted are these: read-out: PB (converted).
The nature of series [2]: Protein binding in rat plasma. Format: ADME, cell-free. The conditions noted are these: read-out: PB (converted).
Series [3] is described as follows: Clearance in Sprague-Dawley rat at 0.5 mg/kg, iv. Format: ADME, organism-based. On the set-up: dose 0.5 mg/kg, route intravenous. The conditions noted are these: in vivo.
Series [4] can be described thus: Volume of distribution at steady state in Sprague-Dawley rat at 0.5 mg/kg, iv. The following applies: in vivo, read-out: Vdss. More on the design: dose 0.5 mg/kg, route intravenous. Format: ADME, organism-based.
Series [5] is described as follows: Half life in Sprague-Dawley rat at 0.5 mg/kg, iv. On the set-up: dose 0.5 mg/kg, route intravenous. Type of series: ADME, organism-based. The conditions noted are these: in vivo.
Series [6] is described as follows: AUC (0 to infinity) in Sprague-Dawley rat at 2 mg/kg, po. Type of series: ADME, organism-based. More on the design: time infinity, dose 2 mg/kg, route oral. The conditions noted are these: plasma.
Series [7] in a line: Cmax in Sprague-Dawley rat at 2 mg/kg, po. Type of series: ADME, organism-based. On the set-up: dose 2 mg/kg, route oral. The conditions noted are these: in vivo.
The nature of series [8]: Tmax in Sprague-Dawley rat at 2 mg/kg. On the set-up: dose 2 mg/kg. Type of series: ADME, organism-based. The following applies: in vivo.
The nature of series [9]: Oral bioavailability in Sprague-Dawley rat at 2 mg/kg. Format: ADME, organism-based. The conditions noted are these: in vivo.
The next series concerns the target Angiopoietin-1 receptor (Homo sapiens, UniProt Q02763). Briefly: Inhibition of Tie2 by HTRF assay.
For series [10], the target named is Vascular endothelial growth factor receptor 2 (Homo sapiens, UniProt P35968). In words: Inhibition of KDR by HTRF assay. In general terms: In TR-FRET formats the signal depends on donor and acceptor labels being close together.
Series [11] has as its target Mitogen-activated protein kinase 14 (Homo sapiens, UniProt Q16539). Briefly: Inhibition of p38alpha by HTRF assay.
The target of series [12] is T1, Tyrosine-protein kinase JAK3 (Homo sapiens, UniProt P52333).
T1 sequence (P52333 whole entry): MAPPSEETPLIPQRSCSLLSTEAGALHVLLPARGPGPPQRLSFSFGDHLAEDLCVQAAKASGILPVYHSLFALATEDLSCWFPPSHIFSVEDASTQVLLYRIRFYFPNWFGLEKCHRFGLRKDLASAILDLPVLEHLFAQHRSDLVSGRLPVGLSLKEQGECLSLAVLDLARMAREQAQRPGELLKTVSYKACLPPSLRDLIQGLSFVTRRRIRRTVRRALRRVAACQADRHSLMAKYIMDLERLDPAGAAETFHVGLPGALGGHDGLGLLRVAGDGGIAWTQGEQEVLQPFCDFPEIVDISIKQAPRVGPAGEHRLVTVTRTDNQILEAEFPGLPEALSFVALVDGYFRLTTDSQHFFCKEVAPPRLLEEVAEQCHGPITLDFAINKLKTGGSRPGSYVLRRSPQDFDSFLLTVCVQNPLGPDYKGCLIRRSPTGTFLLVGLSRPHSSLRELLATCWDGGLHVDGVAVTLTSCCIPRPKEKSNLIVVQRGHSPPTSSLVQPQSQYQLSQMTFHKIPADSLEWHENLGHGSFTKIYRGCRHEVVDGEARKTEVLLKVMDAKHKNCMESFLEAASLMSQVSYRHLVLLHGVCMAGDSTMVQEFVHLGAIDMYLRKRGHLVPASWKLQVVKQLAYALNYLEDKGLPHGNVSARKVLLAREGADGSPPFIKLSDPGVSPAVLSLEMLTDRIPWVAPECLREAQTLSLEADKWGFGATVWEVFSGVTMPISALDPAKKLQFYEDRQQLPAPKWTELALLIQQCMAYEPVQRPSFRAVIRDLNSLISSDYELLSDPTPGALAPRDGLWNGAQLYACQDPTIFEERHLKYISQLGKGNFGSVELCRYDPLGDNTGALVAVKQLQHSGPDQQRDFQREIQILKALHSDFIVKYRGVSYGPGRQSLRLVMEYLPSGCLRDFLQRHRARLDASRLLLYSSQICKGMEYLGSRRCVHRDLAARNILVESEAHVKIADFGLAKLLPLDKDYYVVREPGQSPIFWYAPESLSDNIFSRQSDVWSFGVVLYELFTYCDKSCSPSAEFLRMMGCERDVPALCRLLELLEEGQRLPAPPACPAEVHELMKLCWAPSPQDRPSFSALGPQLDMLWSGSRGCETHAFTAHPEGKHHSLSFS
Briefly: Inhibition of Jak3 by HTRF assay.

Another series relates to Lymphocyte. Briefly: Inhibition of T cell activation in human peripheral blood lymphocytes by mixed lymphocyte reaction. Type of series: functional, cell-based.
Series [13] deals with Tyrosine-protein kinase Lck (Homo sapiens, UniProt P06239).
Chain of Tyrosine-protein kinase Lck (P06239 whole entry): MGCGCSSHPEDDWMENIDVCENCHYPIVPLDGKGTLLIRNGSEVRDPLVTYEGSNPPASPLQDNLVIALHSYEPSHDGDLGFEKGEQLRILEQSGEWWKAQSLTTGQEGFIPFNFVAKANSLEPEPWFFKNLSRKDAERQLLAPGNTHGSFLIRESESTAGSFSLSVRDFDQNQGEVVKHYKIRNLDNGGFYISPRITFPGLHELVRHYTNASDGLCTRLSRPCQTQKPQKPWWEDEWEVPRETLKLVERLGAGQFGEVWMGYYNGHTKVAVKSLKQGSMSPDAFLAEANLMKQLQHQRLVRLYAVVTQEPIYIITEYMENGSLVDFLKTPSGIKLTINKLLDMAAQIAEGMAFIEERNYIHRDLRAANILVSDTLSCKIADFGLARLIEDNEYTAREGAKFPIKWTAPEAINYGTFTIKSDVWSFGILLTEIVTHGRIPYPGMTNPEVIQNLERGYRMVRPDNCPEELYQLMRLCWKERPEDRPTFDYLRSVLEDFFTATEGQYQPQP
Description: Inhibition of Lck by HTRF assay

Chain of Mitogen-activated protein kinase 14 (Q16539 whole entry): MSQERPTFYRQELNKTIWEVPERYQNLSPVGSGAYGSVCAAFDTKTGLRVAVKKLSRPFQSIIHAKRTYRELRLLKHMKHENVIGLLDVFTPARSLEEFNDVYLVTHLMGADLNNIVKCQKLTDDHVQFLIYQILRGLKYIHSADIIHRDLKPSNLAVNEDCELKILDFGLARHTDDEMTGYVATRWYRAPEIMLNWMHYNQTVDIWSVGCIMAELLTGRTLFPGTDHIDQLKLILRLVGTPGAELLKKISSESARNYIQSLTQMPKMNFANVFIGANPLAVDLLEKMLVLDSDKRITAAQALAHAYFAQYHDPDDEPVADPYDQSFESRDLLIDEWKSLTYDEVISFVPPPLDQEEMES
Chain of Vascular endothelial growth factor receptor 2 (P35968 whole entry): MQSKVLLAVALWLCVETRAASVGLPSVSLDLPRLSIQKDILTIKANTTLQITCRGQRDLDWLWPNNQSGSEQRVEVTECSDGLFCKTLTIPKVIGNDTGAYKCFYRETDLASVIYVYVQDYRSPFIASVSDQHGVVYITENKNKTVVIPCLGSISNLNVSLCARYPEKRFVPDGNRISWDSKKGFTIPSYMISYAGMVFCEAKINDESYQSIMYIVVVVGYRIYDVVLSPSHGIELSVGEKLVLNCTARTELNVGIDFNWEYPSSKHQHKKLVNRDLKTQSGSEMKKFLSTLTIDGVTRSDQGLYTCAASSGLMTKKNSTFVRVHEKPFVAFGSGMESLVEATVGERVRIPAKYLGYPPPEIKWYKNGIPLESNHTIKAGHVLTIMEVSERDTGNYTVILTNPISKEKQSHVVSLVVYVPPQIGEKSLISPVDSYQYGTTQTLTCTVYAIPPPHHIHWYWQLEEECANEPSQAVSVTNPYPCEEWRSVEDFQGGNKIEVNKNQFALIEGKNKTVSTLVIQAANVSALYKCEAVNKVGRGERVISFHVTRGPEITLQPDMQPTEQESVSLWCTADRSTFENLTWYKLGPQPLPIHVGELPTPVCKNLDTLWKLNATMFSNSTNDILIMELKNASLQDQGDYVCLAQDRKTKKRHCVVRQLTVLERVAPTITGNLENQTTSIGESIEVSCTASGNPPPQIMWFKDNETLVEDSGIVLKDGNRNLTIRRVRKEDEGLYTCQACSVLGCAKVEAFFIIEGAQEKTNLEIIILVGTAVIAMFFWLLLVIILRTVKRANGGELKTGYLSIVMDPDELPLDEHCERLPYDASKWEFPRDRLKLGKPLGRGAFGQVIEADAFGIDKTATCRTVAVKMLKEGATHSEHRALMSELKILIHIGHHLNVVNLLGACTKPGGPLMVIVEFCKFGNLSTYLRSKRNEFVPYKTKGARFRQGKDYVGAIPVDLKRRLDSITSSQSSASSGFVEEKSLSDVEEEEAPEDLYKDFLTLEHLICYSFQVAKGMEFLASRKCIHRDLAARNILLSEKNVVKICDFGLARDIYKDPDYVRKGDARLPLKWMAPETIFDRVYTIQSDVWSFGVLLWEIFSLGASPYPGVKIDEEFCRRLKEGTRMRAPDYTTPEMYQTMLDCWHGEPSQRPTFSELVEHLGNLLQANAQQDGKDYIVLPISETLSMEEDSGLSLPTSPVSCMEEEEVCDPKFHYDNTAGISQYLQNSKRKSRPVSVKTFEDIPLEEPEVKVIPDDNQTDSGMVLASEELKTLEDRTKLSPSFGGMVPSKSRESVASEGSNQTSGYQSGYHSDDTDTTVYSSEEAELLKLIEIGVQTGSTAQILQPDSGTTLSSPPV
Chain of Angiopoietin-1 receptor (Q02763 whole entry): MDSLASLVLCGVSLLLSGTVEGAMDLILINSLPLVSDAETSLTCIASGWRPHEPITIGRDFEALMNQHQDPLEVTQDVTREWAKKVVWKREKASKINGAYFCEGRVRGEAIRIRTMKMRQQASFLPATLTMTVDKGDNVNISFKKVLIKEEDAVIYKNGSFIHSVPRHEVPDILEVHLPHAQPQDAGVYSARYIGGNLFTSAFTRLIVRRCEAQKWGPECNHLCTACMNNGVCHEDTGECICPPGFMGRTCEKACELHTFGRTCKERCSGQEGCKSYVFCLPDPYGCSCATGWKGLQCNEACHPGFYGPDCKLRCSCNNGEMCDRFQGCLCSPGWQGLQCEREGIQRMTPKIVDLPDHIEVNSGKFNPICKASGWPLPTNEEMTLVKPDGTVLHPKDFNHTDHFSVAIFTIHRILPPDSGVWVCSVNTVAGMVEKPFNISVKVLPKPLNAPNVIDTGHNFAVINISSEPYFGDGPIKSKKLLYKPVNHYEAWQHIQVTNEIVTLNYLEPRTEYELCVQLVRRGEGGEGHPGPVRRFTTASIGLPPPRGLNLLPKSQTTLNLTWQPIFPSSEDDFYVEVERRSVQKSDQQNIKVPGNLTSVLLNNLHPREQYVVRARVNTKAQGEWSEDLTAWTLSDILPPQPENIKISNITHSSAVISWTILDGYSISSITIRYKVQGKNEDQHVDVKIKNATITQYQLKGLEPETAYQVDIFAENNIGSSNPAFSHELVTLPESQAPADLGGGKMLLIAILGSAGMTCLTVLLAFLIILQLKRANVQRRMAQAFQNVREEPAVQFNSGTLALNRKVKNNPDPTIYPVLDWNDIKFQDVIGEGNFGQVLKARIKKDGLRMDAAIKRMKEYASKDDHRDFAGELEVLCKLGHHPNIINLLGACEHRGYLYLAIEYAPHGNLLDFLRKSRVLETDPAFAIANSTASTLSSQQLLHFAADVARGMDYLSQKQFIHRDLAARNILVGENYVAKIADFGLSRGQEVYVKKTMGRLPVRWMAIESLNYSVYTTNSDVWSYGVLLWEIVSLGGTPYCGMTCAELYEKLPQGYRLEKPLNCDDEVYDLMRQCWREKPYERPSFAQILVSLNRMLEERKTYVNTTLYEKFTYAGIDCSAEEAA

Regarding `Cc1ccc(NC(=O)c2ccc3c(c2)OC(F)(F)O3)cc1C(=O)Nc1cnc(Nc2ccc(N3CCN(C)CC3)cc2)nc1`, the half-maximal inhibitory concentration (IC50) is 13 nM in the series on Blood; > 8.3 µM against Angiopoietin-1 receptor; 272 nM in series [10]; 10 nM in series [11]; > 25 µM in series [12]; 58 nM in the series with Lymphocyte. For the same compound, half-maximal inhibition in [13] (IC50) required 1.3 nM. Further, the fraction unbound in [1] was 0.019; in [2] it was 0.011. Further, in series [3], the clearance was 22.8 mL/min/kg. Further, the Vd in series [4] amounted to 3.76 L/kg. The compound further gave a half-life in series [5] of 150 min. The compound also showed an AUC(0-inf) in series [6] of 58 ng·h/mL. In [7], this compound came in with a Cmax of 16 ng/mL. In series [8], the Tmax is 25.2 min. This compound also registered a bioavailability in series [9] of 4%.

As to `Cc1ccc(NC(=O)Nc2cccc(C(F)(F)F)c2)cc1-c1ccc2nc(N)ncc2c1`, the IC50 on Angiopoietin-1 receptor turned out to be 0.093 µM; in series [10] it was 169 nM; in [11], 28 nM; in series [12], 3.04 µM; with Lymphocyte, 205 nM; in series [13] it was 7 nM.

Consider `Cc1ccc(C(=O)Nc2cccc(C(F)(F)F)c2)cc1C(=O)Nc1cnc(Nc2ccc(N3CCN(C)CC3)cc2)nc1`, for which the IC50 against Angiopoietin-1 receptor worked out at 0.123 µM; in series [10], 5 nM; in [11], 10 nM; in series [12], 0.438 µM; in the series with Lymphocyte it was 15 nM.

In the case of `CN1CCN(c2ccc(Nc3ncc(NC(=O)c4cc(NC(=O)c5ccc6c(c5)OC(F)(F)O6)ccc4Cl)cn3)cc2)CC1`, the IC50 at Angiopoietin-1 receptor is > 5 µM; in series [10], 13 nM; in series [11], 6 nM; in [12] it was > 5 µM; with Lymphocyte, 29 nM; in [13] it was 1.8 nM.

On to `Cc1ccc(NC(=O)c2cccc(C(F)(F)F)c2)cc1C(=O)Nc1cnc(NC2CCN(C)CC2)nc1`, for which the IC50 on Angiopoietin-1 receptor is > 25 µM; in series [10], > 25000 nM; in series [11], 5 nM; in series [12], > 25 µM; in series [13] it was 1310 nM.

Regarding `Cc1ccc(NC(=O)Nc2cccc(C(F)(F)F)c2)cc1C(=O)Nc1cnc(Nc2ccc(N3CCN(C)CC3)cc2)nc1`, the half-inhibitory concentration (IC50) is > 8.3 µM against Angiopoietin-1 receptor; 41 nM in series [10]; 2 nM in series [11]; > 25 µM in series [12]; 87 nM in the series on Lymphocyte; 0.6 nM in series [13].

As for `Cc1ccc(NC(=O)Nc2cccc(C(F)(F)F)c2)cc1C(=O)Nc1cnc(N)nc1`, the 50% inhibitory concentration (IC50) was > 25 µM against Angiopoietin-1 receptor; 587 nM in [10]; > 25 µM in [12]; 158 nM with Lymphocyte; 63 nM in series [13].

As for `Cc1ccc(NC(=O)c2cnoc2C)cc1C(=O)Nc1cnc(Nc2ccc(N3CCN(C)CC3)cc2)nc1`, the IC50 at Angiopoietin-1 receptor is > 25 µM; in [10] it was 3780 nM; in [11], 179 nM; in series [12], > 25 µM; in the series with Lymphocyte, 3920 nM; in series [13], 14 nM.

As to `CC(=O)Nc1ccc(C)c(C(=O)Nc2cnc(Nc3ccc(N4CCN(C)CC4)cc3)nc2)c1`, the IC50 against Angiopoietin-1 receptor is > 25 µM; in series [10], > 5000 nM; in series [11] it was 63 nM; in series [12] it was > 25 µM; in [13] it was 48 nM.

Turning to `Cc1ccc(NC(=O)c2cccc(C(F)(F)F)c2)cc1C(=O)Nc1cnc(NCCCN2CCOCC2)nc1`, the 50% inhibitory concentration (IC50) at Angiopoietin-1 receptor was > 25 µM; in [10], > 8300 nM; in [11], 10 nM; in series [12] it was > 25 µM; with Lymphocyte it was 821 nM; in series [13], 24 nM.

In the series with Lymphocyte, `Cc1ccc(C(=O)Nc2cccc(C(F)(F)F)c2)cc1-c1ccc2nc(N)ncc2c1` returned a 50% inhibitory concentration (IC50) of 9 nM.

For `COc1ccccc1C(=O)Nc1ccc(C)c(C(=O)Nc2cnc(Nc3ccc(N4CCN(C)CC4)cc3)nc2)c1`, the concentration for half-maximal inhibition (IC50) is > 25 µM at Angiopoietin-1 receptor; 1120 nM in [10]; 8 nM in [11]; > 25 µM in series [12]; 399 nM in the series on Lymphocyte; 5 nM in series [13].

For the compound `Cc1ccc(C(=O)Nc2cccc(C(F)(F)F)c2)cc1C(=O)Nc1cnc(N)nc1`, the IC50 at Angiopoietin-1 receptor was > 5 µM; in [10] it was 205 nM; in series [11] it was 87 nM; in series [12] it was > 25 µM; in series [13], 15 nM.

As for `CCc1ccc(NC(=O)c2ccc3c(c2)OC(F)(F)O3)cc1C(=O)Nc1cnc(Nc2ccc(N3CCN(C)CC3)cc2)nc1`, the IC50 is > 25 µM on Angiopoietin-1 receptor; > 5000 nM in series [10]; 233 nM in series [11]; > 25 µM in series [12]; 928 nM in the series with Lymphocyte; 6 nM in series [13].

Turning to `Cc1ccc(NC(=O)c2ccccc2)cc1C(=O)Nc1cnc(Nc2ccc(N3CCN(C)CC3)cc2)nc1`, the IC50 at Angiopoietin-1 receptor is > 25 µM; in series [10], 947 nM; in series [11], 0.9 nM; in series [12] it was > 25 µM; in the series on Lymphocyte it was 187 nM; in series [13], 5 nM.

As for `CN1CCN(c2ccc(Nc3ncc(NC(=O)c4c(Cl)cccc4Cl)cn3)cc2)CC1`, the IC50 at Angiopoietin-1 receptor was > 25 µM; in series [10] it was > 25000 nM; in [11], 1070 nM; in [12], > 25 µM; with Lymphocyte, 555 nM; in series [13], 10 nM.

As for `Cc1ccc(NC(=O)c2cccc(C(F)(F)F)c2)cc1C(=O)Nc1cncnc1`, the half-maximal inhibitory concentration (IC50) was > 25 µM against Angiopoietin-1 receptor, > 8300 nM in series [10], 199 nM in series [11] and > 25 µM in [12].

Take `Cc1ccc(NC(=O)c2cccc(C(F)(F)F)c2)cc1C(=O)Nc1cnc(NCCN2CCOCC2)nc1`: the concentration for half-maximal inhibition (IC50) at Angiopoietin-1 receptor was > 25 µM; in series [10] it was > 8300 nM; in series [11], 6 nM; in series [12], > 25 µM; in the series with Lymphocyte, 202 nM.

As for `Cc1ccc(NC(=O)c2cccc(C(F)(F)F)c2)c(C)c1C(=O)Nc1cnc(Nc2ccc(N3CCN(C)CC3)cc2)nc1`, the half-inhibitory concentration (IC50) against Angiopoietin-1 receptor is > 25 µM; in series [10], 2540 nM; in [11] it was 103 nM; in [12] it was > 25 µM; with Lymphocyte it was 836 nM; in [13], 6 nM.

In [3], `Cc1ccc(NC(=O)c2ccc(C(C)(C)C)cc2)cc1C(=O)Nc1cnc(Nc2ccc(N3CCN(C)CC3)cc2)nc1` had a clearance of 111 mL/min/kg. Further, in series [4], the Vd was 15.8 L/kg. This compound also gave a half-life in [5] of 174 min. Besides, the IC50 against Angiopoietin-1 receptor was > 8.3 µM; in [10], 32 nM; in [11], 22 nM; in series [12], > 25 µM; in the series with Lymphocyte it was 10 nM; in series [13], 1.5 nM.

As to `Cc1ccc(NC(=O)c2cccc(C(F)(F)F)c2)cc1-c1ccc2nc(N)ncc2c1`, the IC50 came to 0.021 µM on Angiopoietin-1 receptor; 6 nM in [10]; 1 nM in [11]; 0.156 µM in series [12]; 43 nM with Lymphocyte; 0.4 nM in [13].

A word on the IC50: it is the concentration that gives 50% inhibition. A lower IC50 goes with greater potency in that assay. A word on the clearance: it is the volume of plasma or blood freed of the substance per unit of time. Higher therefore signals a high capacity for elimination. As usually defined, the half-life is the time needed for the level to fall by half in the phase considered. Low values mean fast loss, high ones slow loss. The term AUC(0-inf) denotes total exposure, with the tail of the curve extrapolated. A higher AUC(0-inf) goes with high exposure. As a reminder, the Cmax is the peak of the concentration-time curve. As a reminder, the Tmax is the time from dosing to the highest level. As a reminder, the bioavailability is dose-corrected exposure relative to a reference, in per cent.
